Results taken from US20230295234A1, “ANTIMICROBIAL PEPTIDOMIMETICS” (SPEXIS AG, priority 2020, published 2023).
Peptide text beside a SMILES is read from it.

Legend:
[1] = tested on: Escherichia coli ATCC 25922; conditions: ATCC 25922
Procedure, shortened: (§1)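 Broth microdilution; cation-adjusted MHII; inoculum ~5×10^5 CFU/mL from 0.5 McFarland saline suspension; peptide two-fold serial dilutions; polysorbate 80 0.002% final; peptide stock 1 mg/mL in water.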

[2] = tested on: Escherichia coli MCR-1 Af 45; conditions: Mueller-Hinton broth II, 18-20 hours at 35° C.
Procedure, shortened: as §1

[3] = tested on: Klebsiella pneumoniae SSI3010; conditions: SSI3010
Procedure, shortened: as §1

[4] = tested on: human red blood cells (hRBC); test: Hemolysis of human red blood cells; format: cell-based; conditions: red cells of human, 1 h
Procedure, shortened: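 PBS-washed human red blood cells (20% v/v) were incubated with peptide at 200 μg/mL for 1 h at 37 °C with shaking. Supernatant OD was read at 540 nm after 8-fold dilution. Hemolysis is expressed as percent of the water control.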

Row | Structure (SMILES) | Escherichia coli ATCC 25922 MIC [1] | Escherichia coli MCR-1 Af 45 MIC [2] | Klebsiella pneumoniae SSI3010 MIC [3] | Hemolysis at 0.2 g/L [4]
1 | CC[C@H](C)[C@H](NC(=O)[C@@H]1C[C@@H](O)CN1C(=O)[C@@H](N)C(C)C)C(=O)N[C@H](C(=O)N[C@@H](Cc1ccc(O)cc1)C(=O)N[C@@H]1C(=O)N[C@@H](CC(N)=O)C(=O)N[C@@H](CCCNC(=N)N)C(=O)N[C@@H](CCN)C(=O)N[C@@H]([C@@H](C)O)C(=O)N[C@H](CCN)C(=O)N[C@@H](CCCCN)C(=O)N[C@H](C(=O)N[C@@H](CCN)C(=O)N[C@@H](CO)C(=O)N[C@@H](Cc2ccc(O)cc2)C(=O)O)CSSC1(C)C)[C@@H](C)O [Example 176] (HELM PEPTIDE1{V.[Hyp].I.T.Y.[Pen].N.R.[Dab].T.[NCC[C@@H](N[*:1])C(=O)[*:2]].K.C.[Dab].S.Y}$PEPTIDE1,PEPTIDE1,6:R3-13:R3$$$V2.0) | 0.25 mg/L | 0.25 mg/L | 0.5 mg/L | 0%
2 | CC[C@H](C)[C@H](NC(=O)[C@@H]1C[C@@H](O)CN1C(=O)[C@@H](N)C(C)C)C(=O)N[C@H](C(=O)N[C@@H](Cc1ccc(O)cc1)C(=O)N[C@@H]1C(=O)N[C@@H](CC(N)=O)C(=O)N[C@@H](CCCNC(=N)N)C(=O)N[C@@H](CCN)C(=O)N[C@@H]([C@@H](C)O)C(=O)N[C@H](CCN)C(=O)N[C@@H](CCCCN)C(=O)N[C@H](C(=O)N[C@@H](CCN)C(=O)N[C@@H](CCN)C(=O)N[C@@H](Cc2ccc(O)cc2)C(=O)O)CSSC1(C)C)[C@@H](C)O [Example 177] (HELM PEPTIDE1{V.[Hyp].I.T.Y.[Pen].N.R.[Dab].T.[NCC[C@@H](N[*:1])C(=O)[*:2]].K.C.[Dab].[Dab].Y}$PEPTIDE1,PEPTIDE1,6:R3-13:R3$$$V2.0) | 0.125 mg/L | 0.125 mg/L | 0.25 mg/L | 0%
3 | CC[C@H](C)[C@H](NC(=O)[C@@H]1C[C@@H](O)CN1C(=O)[C@@H](N)C(C)C)C(=O)N[C@H](C(=O)N[C@@H](Cc1ccc(O)cc1)C(=O)N[C@@H]1C(=O)N[C@@H](CC(N)=O)C(=O)N[C@@H](CCCNC(=N)N)C(=O)N[C@@H](CCN)C(=O)N[C@@H]([C@@H](C)O)C(=O)N[C@H](CCN)C(=O)N[C@@H](CCCCN)C(=O)N[C@H](C(=O)N[C@@H](CCN)C(=O)N[C@@H](CCCCN)C(=O)N[C@@H](Cc2ccc(O)cc2)C(=O)O)CSSC1(C)C)[C@@H](C)O [Example 178] (HELM PEPTIDE1{V.[Hyp].I.T.Y.[Pen].N.R.[Dab].T.[NCC[C@@H](N[*:1])C(=O)[*:2]].K.C.[Dab].K.Y}$PEPTIDE1,PEPTIDE1,6:R3-13:R3$$$V2.0) | 0.25 mg/L | 0.125 mg/L | 0.5 mg/L | 0%
4 | CC[C@H](C)[C@H](NC(=O)[C@@H]1C[C@@H](O)CN1C(=O)[C@@H](N)C(C)C)C(=O)N[C@H](C(=O)N[C@@H](Cc1ccc(O)cc1)C(=O)N[C@@H]1C(=O)N[C@@H](CC(N)=O)C(=O)N[C@@H](CCCNC(=N)N)C(=O)N[C@@H](CCN)C(=O)N[C@@H]([C@@H](C)O)C(=O)N[C@H](CCN)C(=O)N[C@@H](CCCCN)C(=O)N[C@H](C(=O)N[C@@H](CCN)C(=O)N[C@@H](CCCN)C(=O)N[C@@H](Cc2ccc(O)cc2)C(=O)O)CSSC1(C)C)[C@@H](C)O [Example 179] (HELM PEPTIDE1{V.[Hyp].I.T.Y.[Pen].N.R.[Dab].T.[NCC[C@@H](N[*:1])C(=O)[*:2]].K.C.[Dab].[Orn].Y}$PEPTIDE1,PEPTIDE1,6:R3-13:R3$$$V2.0) | 0.125 mg/L | 0.0625 mg/L | 0.25 mg/L | 0%
5 | CC[C@H](C)[C@H](NC(=O)[C@@H]1C[C@@H](O)CN1C(=O)[C@@H](N)C(C)C)C(=O)N[C@H](C(=O)N[C@@H](Cc1ccc(O)cc1)C(=O)N[C@@H]1C(=O)N[C@@H](CC(N)=O)C(=O)N[C@@H](CCCNC(=N)N)C(=O)N[C@@H](CCN)C(=O)N[C@@H]([C@@H](C)O)C(=O)N[C@H](CCN)C(=O)N[C@@H](CCCNC(N)=O)C(=O)N[C@H](C(=O)N[C@@H](CCN)C(=O)N[C@@H](CCCNC(=N)N)C(=O)N[C@@H](Cc2ccc(O)cc2)C(=O)O)CSSC1(C)C)[C@@H](C)O [Example 180] (HELM PEPTIDE1{V.[Hyp].I.T.Y.[Pen].N.R.[Dab].T.[NCC[C@@H](N[*:1])C(=O)[*:2]].[Cit].C.[Dab].R.Y}$PEPTIDE1,PEPTIDE1,6:R3-13:R3$$$V2.0) | 0.25 mg/L | 0.25 mg/L | 0.5 mg/L | 1%
6 | CC[C@H](C)[C@H](NC(=O)[C@@H]1C[C@@H](O)CN1C(=O)[C@@H](NC)C(C)C)C(=O)N[C@H](C(=O)N[C@@H](Cc1ccc(O)cc1)C(=O)N[C@@H]1C(=O)N[C@@H](CC(N)=O)C(=O)N[C@@H](CCCNC(=N)N)C(=O)N[C@@H](CCN)C(=O)N[C@@H]([C@@H](C)O)C(=O)N[C@H](CCN)C(=O)N[C@@H](CCCCN)C(=O)N[C@H](C(=O)N[C@@H](CCN)C(=O)N[C@@H](CCCNC(=N)N)C(=O)N[C@@H](Cc2ccc(O)cc2)C(=O)O)CSSC1(C)C)[C@@H](C)O [Example 181] (HELM PEPTIDE1{[meV].[Hyp].I.T.Y.[Pen].N.R.[Dab].T.[NCC[C@@H](N[*:1])C(=O)[*:2]].K.C.[Dab].R.Y}$PEPTIDE1,PEPTIDE1,6:R3-13:R3$$$V2.0) | 0.125 mg/L | 0.125 mg/L | 0.25 mg/L | 0%
7 | CC[C@H](C)[C@H](NC(=O)[C@@H]1C[C@@H](O)CN1C(=O)[C@@H](N)C(C)C)C(=O)N[C@H](C(=O)N[C@@H](Cc1ccc(O)cc1)C(=O)N[C@@H]1C(=O)N[C@@H](CN)C(=O)N[C@@H](CCCNC(=N)N)C(=O)N[C@@H](CCN)C(=O)N[C@@H]([C@@H](C)O)C(=O)N[C@H](CCN)C(=O)N[C@@H](CCCCN)C(=O)N[C@H](C(=O)N[C@@H](CCN)C(=O)N[C@@H](CCCNC(=N)N)C(=O)N[C@@H](Cc2ccc(O)cc2)C(=O)O)CSSC1(C)C)[C@@H](C)O [Example 182] (HELM PEPTIDE1{V.[Hyp].I.T.Y.[Pen].[NC[C@H](N[*:1])C(=O)[*:2]].R.[Dab].T.[NCC[C@@H](N[*:1])C(=O)[*:2]].K.C.[Dab].R.Y}$PEPTIDE1,PEPTIDE1,6:R3-13:R3$$$V2.0) | 0.0625 mg/L | 0.125 mg/L | 0.25 mg/L | 0%
8 | CC[C@H](C)[C@H](NC(=O)[C@@H]1C[C@@H](O)CN1C(=O)[C@@H](N)C(C)C)C(=O)N[C@@H](CN)C(=O)N[C@@H](Cc1ccc(O)cc1)C(=O)N[C@@H]1C(=O)N[C@@H](CC(N)=O)C(=O)N[C@@H](CCCNC(=N)N)C(=O)N[C@@H](CCN)C(=O)N[C@@H]([C@@H](C)O)C(=O)N[C@H](CCN)C(=O)N[C@@H](CCCCN)C(=O)N[C@H](C(=O)N[C@@H](CCN)C(=O)N[C@@H](CCCNC(=N)N)C(=O)N[C@@H](Cc2ccc(O)cc2)C(=O)O)CSSC1(C)C [Example 183] (HELM PEPTIDE1{V.[Hyp].I.[NC[C@H](N[*:1])C(=O)[*:2]].Y.[Pen].N.R.[Dab].T.[NCC[C@@H](N[*:1])C(=O)[*:2]].K.C.[Dab].R.Y}$PEPTIDE1,PEPTIDE1,6:R3-13:R3$$$V2.0) | 0.25 mg/L | 0.125 mg/L | 0.5 mg/L | 0%
9 | CC[C@H](C)[C@H](NC(=O)[C@@H]1C[C@@H](O)CN1C(=O)[C@@H](N)C(C)C)C(=O)N[C@@H](CCCNC(=N)N)C(=O)N[C@@H](Cc1ccc(O)cc1)C(=O)N[C@@H]1C(=O)N[C@@H](CC(N)=O)C(=O)N[C@@H](CCCNC(=N)N)C(=O)N[C@@H](CCN)C(=O)N[C@@H]([C@@H](C)O)C(=O)N[C@H](CCN)C(=O)N[C@@H](CCCCN)C(=O)N[C@H](C(=O)N[C@@H](CCN)C(=O)N[C@@H](CCCNC(=N)N)C(=O)N[C@@H](Cc2ccc(O)cc2)C(=O)O)CSSC1(C)C [Example 184] (HELM PEPTIDE1{V.[Hyp].I.R.Y.[Pen].N.R.[Dab].T.[NCC[C@@H](N[*:1])C(=O)[*:2]].K.C.[Dab].R.Y}$PEPTIDE1,PEPTIDE1,6:R3-13:R3$$$V2.0) | 0.25 mg/L | 0.0625 mg/L | 0.25 mg/L | 0%
10 | CC[C@H](C)[C@H](NC(=O)[C@@H]1C[C@@H](N)CN1C(=O)[C@@H](N)C(C)C)C(=O)N[C@H](C(=O)N[C@@H](Cc1ccc(O)cc1)C(=O)N[C@@H]1C(=O)N[C@@H](CC(N)=O)C(=O)N[C@@H](CCCNC(=N)N)C(=O)N[C@@H](CCN)C(=O)N[C@@H]([C@@H](C)O)C(=O)N[C@H](CCN)C(=O)N[C@@H](CCCCN)C(=O)N[C@H](C(=O)N[C@@H](Cc2ccc(O)cc2)C(=O)N[C@@H](CCCNC(=N)N)C(=O)N[C@@H](Cc2ccc(O)cc2)C(=O)O)CSSC1(C)C)[C@@H](C)O [Example 185] (HELM PEPTIDE1{V.[N[C@@H]1C[C@@H](C(=O)[*:2])N([*:1])C1].I.T.Y.[Pen].N.R.[Dab].T.[NCC[C@@H](N[*:1])C(=O)[*:2]].K.C.Y.R.Y}$PEPTIDE1,PEPTIDE1,6:R3-13:R3$$$V2.0) | 0.25 mg/L | 0.125 mg/L | 0.5 mg/L | 0%
